Laboratory results reported in US8207293B2, “Peptides derived from maurocalcine used as vectors for intracellular addressing of molecules of interest” (Commissariat a l'Energie Atomique, priority 2004, dated 2012).

Tests used:
live cells = experiment: Flow cytometry analysis of cellular penetration at increasing extracellular KCl (membrane potential); type: cell-based; details: for mean fluorescence value: 100 nM complex, 1 hour
Experimental: The MCab-Strept-Cy^5 complexes were prepared in solutions containing various NaCl/KCl ratios (composition in mM: 145 to 5 NaCl, 5 to 145 KCl, 2.5 CaCl2, 1.2 MgCl2, 10 glucose, 10 HEPES, pH 7.4).
The cells were washed twice with the NaCl/KCl solution used to prepare the complexes, and then incubated with maurocalcine and the derived peptides, which are biotinylated and complexed with streptavidin-cyanin 3 (MCab-Strept-Cy^3 complexes), at the final concentration of 100 nM in the same NaCl/KCl solution, in the dark and at ambient temperature for 1 hour. After 2 washes in the same NaCl/KCl buffer, the cyanin 3 fluorescence was analyzed on live cells, using a flow cytometer (FACScalibur, BECTON DICKINSON). The data were recorded and analyzed using appropriate software (CellQuest, BD BIOSCIENCES). The live cells were sorted according to their size and their granulosity (forward/side scattering), over a total of 10 000 events.

[1] = test system: CA1 hippocampal neurons, HEK293 cells, L6 cells; experiment: Cell penetration of biotinylated peptide/Strept-Cy3 complexes in various cell cultures, confocal microscopy of fixed cells; type: cell-based; details: 100 nM, 30 min, ambient temperature
Experimental: (§1) Soluble streptavidin-cyanin 3 and streptavidin-cyanin 5 (Strept-Cy^3 and Strept-Cy^5, AMERSHAM) were mixed with 4 molar equivalents of biotinylated maurocalcine (1 mM) or biotinylated maurocalcine-derived peptide, in phosphate buffer (PBS, in mM: 136 NaCl, 1.47 Na2HPO4, 2.6 KCl, 1 CaCl2, 0.5 MgCl2, pH 7.2), for 2 hours at 37° C. and in the dark.
The cells were incubated with maurocalcine and the derived peptides, biotinylated and complexed with streptavidin-cyanin 3 or with streptavidin-cyanin 5, at the final concentration of 100 nM in PBS, in the dark and at ambient temperature, for 30 minutes to 1 hour. […] The Alexa-488 and Cy3 or propidium iodide (PI) fluorescences were excited sequentially and then recorded. The Cy3 fluorescence was excited using a 543 nm helium-neon laser beam and the fluorescence emission was recorded between 554 nm and 625 nm. […]
The primary rat hippocampal neurons and the cells of the HEK293 line and the L6 line (before and after differentiation) are incubated for 30 min at ambient temperature, with 100 nM or 333 nM of maurocalcine-derived peptide, biotinylated and complexed with streptavidin-Cy3, or else 100 nM or 333 nM of MCab/Strept-Cy3, as a control. The cells are fixed and the fluorescence is observed by confocal microscopy.

HEK293 cells = experiment: Cell penetration and subcellular distribution of complexes in HEK293 cells, confocal microscopy; type: cell-based, human; details: for cellular distribution of complexes: 333 nM
Experimental: as §1
The human embryonic kidney cells (HEK 293 line, ATCC) are divided before confluence, by treatment with trypsin (1%), and are maintained in DMEM medium (INVITROGEN) containing 10% of inactivated fetal calf serum (INVITROGEN) and 1% of penicillin/streptomycin (INVITROGEN), in a CO2 incubator (5%). The culture medium is changed every 2 days.
The cells were incubated with maurocalcine and the derived peptides, biotinylated and complexed with streptavidin-cyanin 3 or with streptavidin-cyanin 5, […], in the dark and at ambient temperature, for 30 minutes to 1 hour. After 3 washes in PBS, the cells are fixed at ambient temperature, in a paraformaldehyde solution (4%), for 10 min, in the dark, washed in PBS and incubated for one hour with FITC-conjugated concanavalin (MOLECULAR PROBES, 5 μg/ml) in order to label the plasma membrane, and TO-PRO-3 iodide (MOLECULAR PROBES, 1 μM) in order to label the nucleus. In order to label the cytoskeleton, the cells were fixed and permeabilized with ice-cold methanol, for 10 min, washed twice in PBS and incubated with a mouse anti-alpha-tubulin antibody (1:1000, SIGMA), for 2 hours. After two washes in PBS, the cells were incubated for one hour with an anti-mouse IgG secondary antibody conjugated to Alexa 488 (1:1000, MOLECULAR PROBES). The cultures were then mounted in Vectashield mounting medium (VECTOR LABORATORIES). Preparations were observed by laser scanning confocal microscopy, using a Leica TCS-SP2 control system. The Alexa-488 and Cy3 or propidium iodide (PI) fluorescences were excited sequentially and then recorded. The Cy3 fluorescence was excited using a 543 nm helium-neon laser beam and the fluorescence emission was recorded between 554 nm and 625 nm. The images were introduced into Adobe Photoshop 7.0.

RyR1 receptor = molecular target: T1, RyR1 receptor (Oryctolagus cuniculus, UniProt P11716); experiment: Tritiated ryanodine binding assay on heavy sarcoplasmic reticulum vesicles; details: 100 nM complex
T1 construct: from tissue; host or cells: heavy sarcoplasmic reticulum vesicles (skeletal muscle implied)
T1 sequence (P11716 whole entry): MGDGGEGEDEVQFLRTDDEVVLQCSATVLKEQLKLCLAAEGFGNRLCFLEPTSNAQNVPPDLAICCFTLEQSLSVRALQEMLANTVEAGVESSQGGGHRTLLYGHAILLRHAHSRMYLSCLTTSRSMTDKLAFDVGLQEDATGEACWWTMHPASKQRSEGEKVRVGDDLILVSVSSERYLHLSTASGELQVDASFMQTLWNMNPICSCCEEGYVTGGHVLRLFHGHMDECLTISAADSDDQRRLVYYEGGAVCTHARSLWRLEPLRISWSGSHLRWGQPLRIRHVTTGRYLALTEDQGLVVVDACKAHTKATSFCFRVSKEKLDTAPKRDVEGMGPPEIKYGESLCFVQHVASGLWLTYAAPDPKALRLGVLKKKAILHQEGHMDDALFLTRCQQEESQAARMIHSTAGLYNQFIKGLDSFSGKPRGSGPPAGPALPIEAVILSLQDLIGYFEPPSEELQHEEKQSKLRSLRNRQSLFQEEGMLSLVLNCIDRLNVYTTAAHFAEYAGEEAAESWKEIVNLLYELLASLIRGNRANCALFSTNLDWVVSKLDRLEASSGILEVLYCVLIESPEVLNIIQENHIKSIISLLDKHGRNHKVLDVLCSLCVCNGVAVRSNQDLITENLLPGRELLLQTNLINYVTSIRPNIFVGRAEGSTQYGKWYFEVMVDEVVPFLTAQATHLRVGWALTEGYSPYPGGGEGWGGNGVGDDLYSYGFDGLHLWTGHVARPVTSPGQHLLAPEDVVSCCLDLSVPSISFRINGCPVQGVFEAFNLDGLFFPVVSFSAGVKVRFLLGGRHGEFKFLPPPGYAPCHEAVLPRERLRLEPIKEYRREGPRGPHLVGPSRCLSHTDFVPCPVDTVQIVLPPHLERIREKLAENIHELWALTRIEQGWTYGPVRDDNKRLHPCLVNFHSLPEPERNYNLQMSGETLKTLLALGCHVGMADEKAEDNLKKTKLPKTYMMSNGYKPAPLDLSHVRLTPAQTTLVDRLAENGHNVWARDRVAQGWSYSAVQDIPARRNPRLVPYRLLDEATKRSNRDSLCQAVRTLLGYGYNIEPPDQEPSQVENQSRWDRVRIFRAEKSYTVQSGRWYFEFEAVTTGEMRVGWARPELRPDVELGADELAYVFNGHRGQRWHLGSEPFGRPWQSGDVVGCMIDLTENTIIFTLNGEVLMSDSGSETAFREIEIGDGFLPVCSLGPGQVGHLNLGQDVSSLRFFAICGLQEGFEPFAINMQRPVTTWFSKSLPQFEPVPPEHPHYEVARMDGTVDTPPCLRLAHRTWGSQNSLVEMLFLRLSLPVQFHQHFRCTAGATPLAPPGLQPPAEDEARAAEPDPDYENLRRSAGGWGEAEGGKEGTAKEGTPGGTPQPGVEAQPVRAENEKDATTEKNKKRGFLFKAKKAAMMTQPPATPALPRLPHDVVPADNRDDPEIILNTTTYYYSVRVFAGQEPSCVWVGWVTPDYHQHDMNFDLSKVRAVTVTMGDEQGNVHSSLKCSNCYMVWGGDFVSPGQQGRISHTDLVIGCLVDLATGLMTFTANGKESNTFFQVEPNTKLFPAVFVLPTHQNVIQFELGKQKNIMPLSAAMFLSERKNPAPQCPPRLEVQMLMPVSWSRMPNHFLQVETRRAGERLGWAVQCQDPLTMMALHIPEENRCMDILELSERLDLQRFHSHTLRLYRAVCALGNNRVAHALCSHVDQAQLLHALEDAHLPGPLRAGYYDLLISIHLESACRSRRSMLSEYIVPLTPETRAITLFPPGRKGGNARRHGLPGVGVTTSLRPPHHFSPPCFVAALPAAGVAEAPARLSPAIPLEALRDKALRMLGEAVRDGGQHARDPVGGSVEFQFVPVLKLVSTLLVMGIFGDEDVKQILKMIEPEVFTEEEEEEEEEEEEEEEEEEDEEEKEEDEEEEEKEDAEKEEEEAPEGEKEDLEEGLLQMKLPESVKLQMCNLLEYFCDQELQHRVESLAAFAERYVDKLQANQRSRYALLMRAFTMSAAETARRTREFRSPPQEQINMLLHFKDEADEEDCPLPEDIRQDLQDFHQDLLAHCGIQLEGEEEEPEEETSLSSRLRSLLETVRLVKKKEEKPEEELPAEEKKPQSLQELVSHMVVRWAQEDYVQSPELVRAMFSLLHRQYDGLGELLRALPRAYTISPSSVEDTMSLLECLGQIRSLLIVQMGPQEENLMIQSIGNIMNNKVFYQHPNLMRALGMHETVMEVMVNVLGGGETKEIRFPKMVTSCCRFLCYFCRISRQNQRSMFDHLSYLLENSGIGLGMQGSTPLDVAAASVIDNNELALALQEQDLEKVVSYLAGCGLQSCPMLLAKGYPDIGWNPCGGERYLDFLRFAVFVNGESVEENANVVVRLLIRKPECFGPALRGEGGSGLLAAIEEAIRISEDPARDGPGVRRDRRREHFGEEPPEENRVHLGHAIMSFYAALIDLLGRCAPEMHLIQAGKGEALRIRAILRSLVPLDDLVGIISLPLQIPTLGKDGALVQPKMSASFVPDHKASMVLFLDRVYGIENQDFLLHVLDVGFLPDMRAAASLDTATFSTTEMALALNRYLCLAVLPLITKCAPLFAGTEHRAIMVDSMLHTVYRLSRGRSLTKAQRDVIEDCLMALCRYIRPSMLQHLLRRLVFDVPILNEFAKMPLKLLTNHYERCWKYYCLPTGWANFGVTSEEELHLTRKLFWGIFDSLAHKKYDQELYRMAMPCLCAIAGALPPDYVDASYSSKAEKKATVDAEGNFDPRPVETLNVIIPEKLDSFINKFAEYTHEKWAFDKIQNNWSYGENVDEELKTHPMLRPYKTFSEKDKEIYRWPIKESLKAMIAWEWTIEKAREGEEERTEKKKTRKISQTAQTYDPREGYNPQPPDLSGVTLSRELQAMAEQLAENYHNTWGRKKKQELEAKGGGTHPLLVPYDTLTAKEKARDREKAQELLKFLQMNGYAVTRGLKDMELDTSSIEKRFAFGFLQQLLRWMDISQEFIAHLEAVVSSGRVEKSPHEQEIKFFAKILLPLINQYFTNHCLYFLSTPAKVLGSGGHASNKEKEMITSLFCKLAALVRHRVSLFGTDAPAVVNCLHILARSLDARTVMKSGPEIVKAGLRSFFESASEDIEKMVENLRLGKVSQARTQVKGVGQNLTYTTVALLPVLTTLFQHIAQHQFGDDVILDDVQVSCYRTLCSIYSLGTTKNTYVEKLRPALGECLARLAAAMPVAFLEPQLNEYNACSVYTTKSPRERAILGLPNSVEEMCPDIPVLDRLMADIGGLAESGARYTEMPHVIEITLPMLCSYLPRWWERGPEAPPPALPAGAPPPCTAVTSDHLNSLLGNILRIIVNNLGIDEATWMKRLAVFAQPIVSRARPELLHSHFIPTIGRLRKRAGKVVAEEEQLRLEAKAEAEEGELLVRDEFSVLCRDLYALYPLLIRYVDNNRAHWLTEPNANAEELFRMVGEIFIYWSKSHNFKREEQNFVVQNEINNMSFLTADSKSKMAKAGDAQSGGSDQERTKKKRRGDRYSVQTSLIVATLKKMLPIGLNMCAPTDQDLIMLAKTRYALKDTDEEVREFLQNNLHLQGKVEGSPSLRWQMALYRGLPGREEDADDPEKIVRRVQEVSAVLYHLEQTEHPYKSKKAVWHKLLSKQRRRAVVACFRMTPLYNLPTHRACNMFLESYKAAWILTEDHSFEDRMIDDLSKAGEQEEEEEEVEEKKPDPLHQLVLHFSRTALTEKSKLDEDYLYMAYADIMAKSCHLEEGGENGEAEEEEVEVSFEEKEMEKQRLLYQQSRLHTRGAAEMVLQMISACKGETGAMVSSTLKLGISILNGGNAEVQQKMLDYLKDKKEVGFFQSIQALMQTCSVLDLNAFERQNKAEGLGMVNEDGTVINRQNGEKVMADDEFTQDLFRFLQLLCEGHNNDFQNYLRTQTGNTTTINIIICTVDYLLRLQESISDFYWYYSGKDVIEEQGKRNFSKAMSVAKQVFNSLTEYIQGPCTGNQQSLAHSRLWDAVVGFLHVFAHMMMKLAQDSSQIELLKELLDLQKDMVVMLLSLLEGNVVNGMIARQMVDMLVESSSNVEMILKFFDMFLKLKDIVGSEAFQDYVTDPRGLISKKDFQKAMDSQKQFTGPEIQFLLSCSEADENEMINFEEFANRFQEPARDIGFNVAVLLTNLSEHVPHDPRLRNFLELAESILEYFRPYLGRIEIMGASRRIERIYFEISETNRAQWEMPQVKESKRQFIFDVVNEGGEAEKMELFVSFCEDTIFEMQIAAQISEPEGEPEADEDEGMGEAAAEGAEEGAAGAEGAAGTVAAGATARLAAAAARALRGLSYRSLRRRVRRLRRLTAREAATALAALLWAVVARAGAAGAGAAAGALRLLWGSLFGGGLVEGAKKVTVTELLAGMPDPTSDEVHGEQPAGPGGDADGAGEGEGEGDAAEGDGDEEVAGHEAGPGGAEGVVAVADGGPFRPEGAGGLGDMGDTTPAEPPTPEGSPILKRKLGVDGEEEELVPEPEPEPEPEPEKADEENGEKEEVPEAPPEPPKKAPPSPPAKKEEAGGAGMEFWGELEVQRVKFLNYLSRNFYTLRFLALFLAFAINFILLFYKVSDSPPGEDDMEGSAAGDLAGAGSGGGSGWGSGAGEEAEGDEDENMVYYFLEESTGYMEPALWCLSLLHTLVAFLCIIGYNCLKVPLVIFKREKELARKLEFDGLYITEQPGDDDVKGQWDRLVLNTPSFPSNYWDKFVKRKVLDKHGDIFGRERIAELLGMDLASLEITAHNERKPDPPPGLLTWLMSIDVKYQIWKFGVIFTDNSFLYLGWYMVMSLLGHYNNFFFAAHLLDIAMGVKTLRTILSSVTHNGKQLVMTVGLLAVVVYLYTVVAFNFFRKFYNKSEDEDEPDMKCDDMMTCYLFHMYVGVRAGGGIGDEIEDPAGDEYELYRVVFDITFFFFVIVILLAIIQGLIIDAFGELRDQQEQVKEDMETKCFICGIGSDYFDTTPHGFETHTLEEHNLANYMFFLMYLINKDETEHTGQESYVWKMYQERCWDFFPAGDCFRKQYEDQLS
Experimental: The heavy sarcoplasmic reticulum vesicles are prepared according to the method of Kim et al. (J. Biol. Chem., 1983, 258, 9662-9668) modified as described in Marty et al. (J. Biol. Chem., 2000, 275, 8206-8212). The protein concentration is measured by the Biuret method.
The heavy sarcoplasmic reticulum vesicles (1 mg/ml) are incubated at 37° C. for 2 hours and 30 min, in reaction buffer comprising 5 nM [^3H]-ryanodine, 150 mM NaCl, 2 mM EGTA, 2 mM Ca^2+ (pCa=5) and 20 mM Hepes, pH 7.4. Maurocalcine, the maurocalcine-derived peptides and their biotinylated derivatives are added before the addition of the heavy sarcoplasmic reticulum vesicles. The [^3H]-ryanodine bound to the heavy sarcoplasmic vesicles is measured by filtration through Whatmann GF/B filters, followed by three washes with 5 ml of ice-cold washing buffer (150 mM NaCl, 20 mM Hepes, pH 7.4). The [^3H]-ryanodine retained on the filters is measured by liquid scintillation. The nonspecific binding is measured in the presence of […] ryanodine (20 μM). The results are given in the form of means±standard deviation. Each experiment is carried out in triplicate and repeated at least twice.

Substance: MCab/Strept-Cy3: biotinylated maurocalcine, complexed with cyanin-3-labeled streptavidin
- mean fluorescence value (live cells; 5 mM KCl): 145
- mean fluorescence value (live cells; 125 mM KCl): 40
- mean fluorescence value (live cells; 145 mM KCl): 17
- decreasing slope a (linear regression of fluorescence vs KCl concentration) (live cells; fit y=y0+a×x): −0.72
- maximum fluorescence y0 (linear regression vs KCl concentration) (live cells; fit y=y0+a×x): 139.5
- Cy3 labeling of cells (transduction) [1]: strong uniform labeling of the plasma membrane and of the cytoplasm of all the cells
- entry into cells at decreased temperature (HEK293 cells; 100 nM, 1 h, 4° C.): still penetrate into the cells
- effect of amiloride on entry of the complex (HEK293 cells; 100 nM, 1 h, amiloride 3 mM): no effect on the entry of the complex into the cells
- effect of nystatin on entry of the complex (HEK293 cells; 100 nM, 1 h, nystatin 50 μM): no effect on the entry of the complex into the cells
- cellular distribution of complexes (HEK293 cells; 2 hours of incubation): mainly present in the cytoplasm
- cellular distribution of complexes (HEK293 cells; between 4 hours and 24 hours of incubation): mainly perinuclear and colocalizes with the nucleus
- stimulation of [3H]-ryanodine binding to heavy sarcoplasmic reticulum vesicles (RyR1 receptor): conserve the ability to stimulate [^3H]-ryanodine binding
